Values quoted from earlier work in patent publication US7745108B2, “Method for identifying terpene synthase” (The Regents of the University of California, priority 2003, dated 2010).

Tests used:
[1] = tested on: monoterpene synthases; details: all twelve monoterpene synthases tested
[2] = target: T1, taxadiene synthase (Taxus brevifolia, UniProt Q41594)
T1 sequence (Q41594 61-862 limits assumed): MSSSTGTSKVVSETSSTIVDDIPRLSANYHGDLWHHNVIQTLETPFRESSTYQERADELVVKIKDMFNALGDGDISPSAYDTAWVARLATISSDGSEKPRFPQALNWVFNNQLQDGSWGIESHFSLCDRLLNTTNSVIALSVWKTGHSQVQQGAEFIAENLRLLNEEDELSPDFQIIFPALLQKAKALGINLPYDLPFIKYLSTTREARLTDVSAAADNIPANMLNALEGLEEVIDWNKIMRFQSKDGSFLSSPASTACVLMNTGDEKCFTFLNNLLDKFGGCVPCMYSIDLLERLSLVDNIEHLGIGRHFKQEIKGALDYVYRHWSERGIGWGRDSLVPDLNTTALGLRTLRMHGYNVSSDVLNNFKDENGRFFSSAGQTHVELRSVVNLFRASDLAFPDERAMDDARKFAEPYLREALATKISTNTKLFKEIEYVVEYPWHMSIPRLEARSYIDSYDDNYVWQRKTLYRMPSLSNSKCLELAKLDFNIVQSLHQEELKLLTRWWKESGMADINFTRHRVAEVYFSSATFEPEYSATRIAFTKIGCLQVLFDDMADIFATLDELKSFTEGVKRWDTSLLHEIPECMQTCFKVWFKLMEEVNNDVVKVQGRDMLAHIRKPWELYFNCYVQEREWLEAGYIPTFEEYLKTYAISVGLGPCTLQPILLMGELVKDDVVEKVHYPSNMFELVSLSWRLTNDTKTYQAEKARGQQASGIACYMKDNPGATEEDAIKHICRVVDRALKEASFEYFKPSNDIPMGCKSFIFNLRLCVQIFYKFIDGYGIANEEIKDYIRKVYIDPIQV

| Substance | sensitivity of monoterpene synthases to the inhibitor [1] | covalent modification and inhibition of taxadiene synthase [2] |
| --- | --- | --- |
| cyclopropylidene geranyl diphosphate [CP-GPP] | sensitive |  |
| cyclopropylidene geranylgeranyl diphosphate [CP-GGPP] |  | unsuccessful in covalently modifying and inhibiting |
